Measured values published in US20240226228A1, “ANTIMICROBIAL PEPTOID HAVING IMPROVED SELECTIVITY AND ANTIMICROBIAL COMPOSITION COMPRISING SAME” (priority 2021, published 2024).
Values after ≈ are worked out from the molar mass of the structure shown. Read-outs that look alike come from different tables or passages of the source. Where a SMILES comes first, the peptide text is derived from it. [ ]: non-standard residue; d: D form. Gly(N(CH2)2(3-indolyl)) = O=C(O)CNCCc1c[nH]c2ccccc12; Gly(N-CH2CH2-imidazol-4-yl) = O=C(O)CNCCc1c[nH]cn1; Nspe = C[C@H](NCC(=O)O)c1ccccc1; Nlys = NCCCCNCC(=O)O

Assays:
E. coli ATCC25922 = conditions: for antimicrobial activity (in words): E. coli and S. aureus, compared to Peptoid 1, parent peptoid or TFA salt as stated
Summary of the method: (§1)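 Cation-adjusted MHB2 cultures (18 h, subcultured 4 h) adjusted to 2×10^5–5×10^5 CFU/mL in medium with 0.02% BSA and 0.001% acetic acid.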

S. aureus ATCC 25923 = system: S. aureus ATCC 25923
Summary of the method: as §1

[1] = HPLC to confirm peptoid decomposition after counter ion substitution; assay type: physicochemical; conditions: HPLC at 220 nm; HCl and AcOH
Method: FIGS. 76 to 83 are the HPLC results for Peptoids 1, 10, 11, 14, 15, 29, 32 and 37 of the present inventive concept to confirm the decomposition of the peptoids after counter ion substitution using (a) HCl and (b) AcOH.
Referring to FIGS. […], HPLC was performed for Peptoids 1, 10, 11, 14, 15, 29, 32 and 37 of the present inventive concept. Since the chloride (HCl) is a stronger acid than TFA, it can decompose acid-vulnerable peptoid compounds.

red blood cells = assay: Hemolysis assay; assay type: cell-based, Sprague-Dawley mouse
Summary of the method: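 Peptoid is mixed with 10% (v/v) PBS-washed erythrocytes (male Sprague-Dawley […], 13 weeks) and held 1 h at 37 °C. Hemolysis is calculated from 540 nm absorbance of the supernatant, with PBS as 0% and Triton X-100 as 100%.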

Human lung cells (MRC-5) = assay: in vitro; conditions: read-out: LC50 MRC-5; 24 hours incubation; concentration that causes 50% cell lethality
Method: (§2) Human lung cells (MRC-5) were purchased from the Korean Cell Line Bank, and human keratinocytes (HaCaT) were purchased from the AmorePacific R&D Center. All cells were grown in a Dulbecco's modified Eagle's medium containing 10% fetal bovine serum under conditions of 5% CO2 and 37° C. To confirm the effect of a peptoid on cell growth, 3-(4,5-dimethylthiazol-2-yl)-5-(3-carboxymethoxyphenyl)-2-(4-sulfophenyl)-2H-tetrazolium (MTS) cell assay was performed to determine cell viability. An aliquot (100 μL) of a batch including 1.3×10^4 MRC-5 cells/mL or 3×10^4 HaCaT cells/mL was dispensed into each well of a 96-well plate. The cells were grown at 37° C. in a 5% CO2 humid atmosphere and allowed to adhere for 24 hours. When the cells reached approximately 70% confluency, the medium was replaced with serial dilutions of the peptoid stock and incubated for 24 hours. 20 μL of a CellTiter 96 aqueous non-radioactive cell proliferation assay reagent (Promega, USA) including a tetrazolium compound was added to each well.
(§3) The contents in the plate were metabolized by incubating at 37° C. for 4 hours. An MTS-formazan product of viable cells was measured at 490 nm using a microplate reader, and cell viability (%) was calculated by Equation 2 below and compared with untreated cells.
(§4) Cell viability (%)=[A/(Acontrol)]×100 [Equation 2]
(§5) In Equation 2, A is the absorbance of a test well, and Acontrol is the average absorbance of a well containing untreated cells.
(§6) The term “nd” shown in Table 19 below is the abbreviation for not determined, and indicates a value that is too small or too large to be measured.

[2] = system: human keratinocytes (HaCaT); assay: in vitro
Method: as §2, §3, §4, §5, §6

[3] = Table 18, TFA salt vs counter ion-substituted (HCl, AcOH) peptoids
[4] = Tables 11-13, 24 hours at 37° C., maximum concentration 25 μM
[5] = Table 18, TFA salt vs counter ion-substituted peptoids

SMILES	antimicrobial activity (in words) (E. coli ATCC25922)	MIC E. coli ATCC25922 (E. coli ATCC25922; [3])	MIC E. coli ATCC25922 (E. coli ATCC25922; [4])	MIC S. aureus ATCC 25923 (S. aureus ATCC 25923; [4])	peptoid decomposition after counter ion substitution (in words) [1]	MIC S. aureus ATCC 25923 (S. aureus ATCC 25923; [3])	MIC E. coli ATCC25922 (E. coli ATCC25922; ATCC25922)	HC10 (red blood cells)	HC50 (red blood cells)	Hmax (100 μM) (red blood cells)	also measured
C[C@@H](c1ccccc1)N(CC(N)=O)C(=O)CN(C(=O)CN(CCCCN)C(=O)CN(C(=O)CN(CCc1c[nH]c2ccccc12)C(=O)CN(CCCCN)C(=O)CN(CCc1c[nH]c2ccccc12)C(=O)CN(C(=O)CN(CCCCN)C(=O)CN(C(=O)CN(C(=O)CNCCCCN)[C@@H](C)c1ccccc1)[C@@H](C)c1ccccc1)[C@@H](C)c1ccccc1)[C@@H](C)c1ccccc1)[C@@H](C)c1ccccc1 [Peptoid 15, H-NLys-Nspe-Nspe-NLys-Nspe-NhTrp-NLys-NhTrp-Nspe-NLys-Nspe-Nspe-NH2]	antimicrobial activity was reduced	3.1 µM	6.3 µM (≈ 12 µg/mL)	1.6 µM (≈ 3.04 µg/mL)	almost no peptoid decomposition occurred						MIC S. aureus ATCC 25923 (S. aureus ATCC 25923; ATCC 25923): 1.6 µM (≈ 3.04 µg/mL)
C[C@@H](c1ccccc1)N(CC(N)=O)C(=O)CN(C(=O)CN(CCCCN)C(=O)CN(C(=O)CN(C(=O)CN(CCCCN)C(=O)CN(C(=O)CN(C(=O)CN(CCCCN)C(=O)CN(C(=O)CN(C(=O)CNCCCCN)[C@@H](C)c1ccccc1)[C@@H](C)c1ccccc1)[C@@H](C)c1ccccc1)[C@@H](C)c1ccccc1)[C@@H](C)c1ccccc1)[C@@H](C)c1ccccc1)[C@@H](C)c1ccccc1 [Peptoid 1-2, reference compound] (H-[Nlys][Nspe][Nspe][Nlys][Nspe][Nspe][Nlys][Nspe][Nspe][Nlys][Nspe][Nspe]-NH2)		12.5 µM				3.1 µM					HC10 (red blood cells; [5]): 25.0 µM; HC50 (red blood cells; [5]): 78.6 µM; Hmax (100 μM) (red blood cells; [5]): 58.2 ± 1.7%; CC50 (Human lung cells (MRC-5)): 8.6 µM
C[C@@H](c1ccccc1)N(CC(=O)N(CCCCN)CC(=O)N(CC(=O)N(CC(=O)N(CCCCN)CC(=O)N(CC(=O)N(CC(=O)N(CCCCN)CC(N)=O)[C@@H](C)c1ccccc1)[C@@H](C)c1ccccc1)[C@@H](C)c1ccccc1)[C@@H](C)c1ccccc1)C(=O)CN(C(=O)CN(CCCCN)C(=O)CN(CCc1c[nH]c2ccccc12)C(=O)CNCCc1c[nH]c2ccccc12)[C@@H](C)c1ccccc1 [Peptoid 37, H-NhTrp-NhTrp-NLys-Nspe-Nspe-NLys-Nspe-Nspe-NLys-Nspe-Nspe-NLys-NH2] (H-[Gly(N(CH2)2(3-indolyl))][Gly(N(CH2)2(3-indolyl))][Nlys][Nspe][Nspe][Nlys][Nspe][Nspe][Nlys][Nspe][Nspe][Nlys]-NH2)	antimicrobial activity was reduced		3.1 µM (≈ 5.88 µg/mL)	1.6 µM (≈ 3.04 µg/mL)	almost no peptoid decomposition occurred	1.6 µM	3.1 µM (≈ 5.88 µg/mL)				
C[C@@H](c1ccccc1)N(CC(N)=O)C(=O)CN(C(=O)CN(CCCCN)C(=O)CN(C(=O)CN(C(=O)CN(CCCCN)C(=O)CN(C(=O)CN(C(=O)CN(CCCCN)C(=O)CN(C(=O)CN(C(=O)CNCCCCN)[C@@H](C)c1ccccc1)[C@@H](C)c1ccccc1)[C@@H](C)c1ccccc1)[C@@H](C)c1ccccc1)[C@@H](C)c1ccccc1)[C@@H](C)c1ccccc1)[C@@H](C)c1ccccc1 [Peptoid 1-1, reference compound] (H-[Nlys][Nspe][Nspe][Nlys][Nspe][Nspe][Nlys][Nspe][Nspe][Nlys][Nspe][Nspe]-NH2)		6.3 µM				1.6 µM					HC10 (red blood cells; [5]): 27.6 µM; HC50 (red blood cells; [5]): 83.3 µM; Hmax (100 μM) (red blood cells; [5]): 61.5 ± 0.9%; CC50 (Human lung cells (MRC-5)): 11.8 µM
C[C@@H](c1ccccc1)N(CC(=O)N(CCc1c[nH]c2ccccc12)CC(=O)N(CCCCN)CC(=O)N(CC(=O)N(CC(=O)N(CCCCN)CC(=O)N(CC(=O)N(CC(=O)N(CCCCN)CC(=O)N(CC(=O)N(CCc1c[nH]c2ccccc12)CC(N)=O)[C@@H](C)c1ccccc1)[C@@H](C)c1ccccc1)[C@@H](C)c1ccccc1)[C@@H](C)c1ccccc1)[C@@H](C)c1ccccc1)C(=O)CNCCCCN [Peptoid 16] (H-[Nlys][Nspe][Gly(N(CH2)2(3-indolyl))][Nlys][Nspe][Nspe][Nlys][Nspe][Nspe][Nlys][Nspe][Gly(N(CH2)2(3-indolyl))]-NH2)			6.3 µM (≈ 12 µg/mL)	1.6 µM (≈ 3.04 µg/mL)				13.8 µM	25.0 µM	100.3 ± 1.7%	
C[C@@H](c1ccccc1)N(CC(N)=O)C(=O)CN(CCCCN)C(=O)CN(CCc1c[nH]cn1)C(=O)CN(C(=O)CN(C(=O)CN(CCCCN)C(=O)CN(C(=O)CN(C(=O)CN(CCCCN)C(=O)CN(CCc1c[nH]c2ccccc12)C(=O)CN(CCc1c[nH]c2ccccc12)C(=O)CNCCCCN)[C@@H](C)c1ccccc1)[C@@H](C)c1ccccc1)[C@@H](C)c1ccccc1)[C@@H](C)c1ccccc1 [Peptoid 75] (H-[Nlys][Gly(N(CH2)2(3-indolyl))][Gly(N(CH2)2(3-indolyl))][Nlys][Nspe][Nspe][Nlys][Nspe][Nspe][Gly(N-CH2CH2-imidazol-4-yl)][Nlys][Nspe]-NH2)							6.3 µM (≈ 11.9 µg/mL)			18.3 ± 1.1	MIC S. aureus ATCC 25923 (S. aureus ATCC 25923; ATCC 25923): 6.3 µM (≈ 11.9 µg/mL); HD10 (red blood cells): 68.0; HD50 (red blood cells): > 100.0
C[C@@H](c1ccccc1)N(CC(N)=O)C(=O)CN(CCCCN)C(=O)CN(CCCCN)C(=O)CN(C(=O)CN(C(=O)CN(CCCCN)C(=O)CN(C(=O)CN(C(=O)CN(CCCCN)C(=O)CN(CCc1c[nH]c2ccccc12)C(=O)CN(CCc1c[nH]c2ccccc12)C(=O)CNCCCCN)[C@@H](C)c1ccccc1)[C@@H](C)c1ccccc1)[C@@H](C)c1ccccc1)[C@@H](C)c1ccccc1 [Peptoid 32-1]		6.3 µM				6.3 µM		>100/>100 μM	>100/>100 μM	8.7 ± 0.6%	LC50 / animal cell toxicity, HaCaT (in words) [2]: LC50 values of the peptoids increase
C[C@@H](c1ccccc1)N(CC(=O)N(CCCCN)CC(=O)N(CC(=O)N(CC(=O)N(CCCCN)CC(=O)N(CC(=O)N(CC(=O)N(CCCCN)CC(=O)N(CCc1c[nH]c2ccccc12)CC(=O)N(CCc1c[nH]c2ccccc12)CC(N)=O)[C@@H](C)c1ccccc1)[C@@H](C)c1ccccc1)[C@@H](C)c1ccccc1)[C@@H](C)c1ccccc1)C(=O)CN(C(=O)CNCCCCN)[C@@H](C)c1ccccc1 [Peptoid 11-2] (H-[Nlys][Nspe][Nspe][Nlys][Nspe][Nspe][Nlys][Nspe][Nspe][Nlys][Gly(N(CH2)2(3-indolyl))][Gly(N(CH2)2(3-indolyl))]-NH2)		3.1 µM				1.6 µM		8.7 µM	29.7 µM	110.4 ± 0.2%	
C[C@@H](c1ccccc1)N(CC(N)=O)C(=O)CN(C(=O)CN(CCCCN)C(=O)CN(C(=O)CN(C(=O)CN(CCCCN)C(=O)CN(C(=O)CN(C(=O)CN(CCCCN)C(=O)CN(CCc1c[nH]c2ccccc12)C(=O)CN(C(=O)CNCCCCN)[C@@H](C)c1ccccc1)[C@@H](C)c1ccccc1)[C@@H](C)c1ccccc1)[C@@H](C)c1ccccc1)[C@@H](C)c1ccccc1)[C@@H](C)c1ccccc1 [Peptoid 10, H-NLys-Nspe-NhTrp-NLys-Nspe-Nspe-NLys-Nspe-Nspe-NLys-Nspe-Nspe-NH2]	antimicrobial activity was reduced		3.1 µM (≈ 5.76 µg/mL)	1.6 µM (≈ 2.97 µg/mL)	almost no peptoid decomposition occurred	0.8 µM	3.1 µM (≈ 5.76 µg/mL)				
